Assay results taken from patent US20250361274A1, “PEPTIDE AND PEPTIDE-CONTAINING AGENT” (PEPTIDREAM INC., priority 2022, published 2025).
“Also recorded” adds a separate entry of the source. Numbered stars: 1 amine (or outer) side, 2 acyl side, 3 side chain; on linkers, the order of the positions; unused ones are H or OH. Bridge positions count the residues as written; N and C are the ends. Square brackets hold non-standard residues; d marks the D form. Peptide text beside a SMILES is read from it. ξ: configuration not given here. X2 = O=C(C[C@@H](Cc1ccc(-c2ccccc2)cc1)C(=O)[*:2])[C@@H]1CCCN1[*:1]; Phe(4-COOH) = N[C@@H](Cc1ccc(C(=O)O)cc1)C(=O)O; Bip = N[C@@H](Cc1ccc(-c2ccccc2)cc1)C(=O)O; Nle(6-COOH) = N[C@@H](CCCCC(=O)O)C(=O)O; X1 = N=C(CN)NCCC[C@H](N[*:1])C(=O)[*:2]; Ala(4-THP) = N[C@@H](CC1CCOCC1)C(=O)O; ξE = NC(CCC(=O)O)C(=O)O; βAla = NCCC(=O)O

Tests used:
BMP4 = molecular target: T1, BMP4 (Homo sapiens, UniProt P12644); assay: BMP4 signal transduction inhibitory activity: SMAD1 phosphorylation by BMP4 stimulus, AlphaLISA SureFire, A549 cells; type: cell-based
T1 sequence (P12644 293-408): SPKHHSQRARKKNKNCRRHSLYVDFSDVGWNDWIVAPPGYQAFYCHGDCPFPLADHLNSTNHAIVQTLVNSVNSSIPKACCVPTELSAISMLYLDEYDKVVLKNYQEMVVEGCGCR

BMP7 = molecular target: T2, BMP7 (Homo sapiens, UniProt P18075); assay: BMP7 signal transduction inhibitory activity: SMAD1 phosphorylation by BMP7 stimulus, A549 cells; type: cell-based
T2 sequence (P18075 293-431): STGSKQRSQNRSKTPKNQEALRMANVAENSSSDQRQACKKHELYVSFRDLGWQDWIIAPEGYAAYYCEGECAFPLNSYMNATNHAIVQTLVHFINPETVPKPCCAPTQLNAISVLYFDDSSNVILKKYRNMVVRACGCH
Summary of the method: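 A549 cells were stimulated with 10 nM BMP7, and peptide inhibition of signalling was measured as SMAD1 phosphorylation. Peptides were tested at three concentrations, in sets ranging from 1–100 nM to 100–1,000 nM, or as eight-point 1/3 dilution series starting at 100 nM or 1,000 nM.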

IC50 (BMP4; Table 2, eight concentrations, ratio 1/3 from 2 nM, A549 cells): 53 pM
Structure (SMILES): CC(C)[C@@H]1NC(=O)[C@H](CCCNC(=N)N)NC(=O)[C@H](CCCCC(=O)O)NC(=O)CSC[C@@H](C(=O)NCCC(=O)NC(CCC(=O)O)C(=O)O)NC(=O)[C@H](CO)NC(=O)[C@H](Cc2ccc(C(=O)O)cc2)NC(=O)[C@H](Cc2ccc(C(=O)O)cc2)NC(=O)[C@H](Cc2ccc(O)cc2)NC(=O)[C@H](Cc2ccc(-c3ccccc3)cc2)CC(=O)[C@@H]2CCCN2C(=O)[C@H](Cc2ccc(O)cc2)NC(=O)[C@@H]2CCCN2C(=O)[C@H](Cc2ccc(-c3ccccc3)cc2)NC(=O)[C@H](CCCNC(=N)CN)NC(=O)[C@H](CC(=O)O)NC(=O)[C@H](CC2CCOCC2)NC(=O)[C@H](Cc2ccc(C(=O)O)cc2)NC1=O (stereo partly shown) [SEQ ID No. 177] ({CH2CO}-[Nle(6-COOH)]RV[Phe(4-COOH)][Ala(4-THP)]D[X1][Bip]PY[X2]Y[Phe(4-COOH)][Phe(4-COOH)]SC[βAla][ξE]-OH; thioether N-16)
BMP4 inhibitory activity (in words) (BMP4): same level of the BMP4 inhibitory activity as Noggin; also recorded: signal transduction inhibitory activities of BMP4 and BMP7
aLISA BMP4 (BMP4; class of inhibition of SMAD1 phosphorylation by BMP4 stimulus, AlphaLISA, A549 cells): A (showed an inhibitory activity of 50% or more in a zone to which the peptide was added to in an amount of 0.2 nM)
BMP7 inhibitory activity (in words) (BMP7): same level of the BMP7 inhibitory activity as Noggin; also recorded: signal transduction inhibitory activities of BMP4 and BMP7
